From patent US11129835B2, “Methods and compositions for the inhibition of PIN1” (Beth Israel Deaconess Medical Center, Inc., priority 2012, dated 2021)

Legend:
breast cancer cells = test: RARa knockdown rescue of cis-RA-mediated cell death; format: cell-based
Source text: (§1) The anti-cancer effect of RAs was examined to determine whether it depends on RAR in the breast cancer cells.

Pin1 = Pin1 (Homo sapiens, UniProt Q13526); test: PPIase assay; format: biochemical
Source text: The anti-cancer effect of RAs was examined to determine whether it depends on RAR in the breast cancer cells. […] In the PPIase assay, Pin1 activity was blocked by either cis- or trans-RA in a dose-dependent manner.

Pin1 and DAPK1 = Pin1 and DAPK1 (Homo sapiens, UniProt Q13526); test: association between Pin1 and DAPK1; format: binding
SKBR3 = test: cell viability of breast cancer cell lines; format: cell-based
Source text: (§2) This discrepancy between cell lines was correlated with the RAs' ability to suppress Pin1 expression. Pin1 level was decreased by treatment of RAs in drugs-responsive SKBR3 and T47D, but not in drugs-irresponsive normal cells, MCF10A, in which Pin1 target protein, cyclin D1, served as biomarker of in vivo Pin1 activity.

T47D = test: cell viability of breast cancer cell lines; format: cell-based
Source text: as §2

full length Pin1 = target: T1, full length Pin1 (Homo sapiens, UniProt Q13526); test: single-step fluorescence polarization-based displacement assay (FP-HTS), 384-well, HF488 probe; format: binding; settings: for Pin1 inhibition in the FP assay: cis-RA compared with trans-RA
T1 construct: FP-HTS in a 384-well plate format with full length Pin1
Description: A high-throughput screen for identifying Pin1 inhibitors was developed using a single-step fluorescence polarization-based displacement assay (FP-HTS).
The FP-HTS with a 5 nM probe and 200 nM Pin1 was used to conduct a pilot screen on a selected set of chemical libraries.
as §1

MCF10A = test: cell viability, normal cell line; format: cell-based
Source text: as §2

[1] = tested on: Pin1 K63A, S67E, R68/69A, H59A or S71E; test: trans-RA binding to Pin1 point mutants
[2] = tested on: mouse embryonic fibroblast (WT MEF, Pin1 KO MEF); test: trans-RA-mediated cell viability in WT and Pin1 knockout MEF; format: cell-based
Source text: To further confirm this premise, wild-type mouse embryonic fibroblast (WT MEF) and Pin1 knockout MEF (Pin1 KO MEF) were used to test trans-RA-mediated cell viability.

T1 sequence (Q13526 whole entry): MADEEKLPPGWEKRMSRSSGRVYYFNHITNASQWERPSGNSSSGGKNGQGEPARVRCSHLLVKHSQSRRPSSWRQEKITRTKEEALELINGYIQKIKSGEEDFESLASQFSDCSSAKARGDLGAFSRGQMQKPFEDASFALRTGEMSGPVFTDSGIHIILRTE
Chain of Pin1 (Q13526 whole entry): as above
Chain of Pin1 and DAPK1 (Q13526 whole entry): as above

| Compound | cell death after RARa knockdown (breast cancer cells) | Pin1 activity in the PPIase assay (Pin1) | association between Pin1 and DAPK1 (Pin1 and DAPK1) | IC50, cell viability (SKBR3) | IC50, cell viability (T47D) | pilot screen hit ranking by Z-score (full length Pin1; 5 nM probe and 200 nM Pin1) | Pin1 inhibition in the FP assay (full length Pin1) | cell viability (MCF10A) | binding to Pin1 point mutants [1] | cell viability, Pin1 KO MEF versus WT MEF [2] | cell viability, Pin1 KO MEF re-expressing Pin1 ([2]; stably expressing WT Pin1 or W34 K63A Pin1 mutant) |
| --- | --- | --- | --- | --- | --- | --- | --- | --- | --- | --- | --- |
| CC1=C(/C=C/C(C)=C/C=C/C(C)=C\C(=O)O)C(C)(C)CCC1 [cis-RA, 13-cis-retinoic acid] | only partially rescue | blocked | blocked the association between Pin1 and DAPK1 in a dose-dependent manner | nano-molar range | nano-molar range | top inhibitory chemical | eventually catch up with trans-RA in the long-term incubation with Pin1 | remained unaffected | – | – | – |
| CC1=C(/C=C/C(C)=C/C=C/C(C)=C/C(=O)O)C(C)(C)CCC1 [trans-RA, all-trans retinoic acid] | – | blocked | blocked the association between Pin1 and DAPK1 in a dose-dependent manner, with trans being more potent | nano-molar range | nano-molar range | – | even more prominent Pin1 inhibition than cis-RA | remained unaffected | completely or significantly abolished | Pin1 KO MEF was more resistant to trans-RA than WT MEF | Pin1 KO MEF stably expressing WT Pin1, but not W34 K63A Pin1 mutant, enabled cells to re-sensitize trans-RA |
